Data reported in patent US9145351B2, “Azole derivatives, methods for producing the same, intermediate thereof, agro-horticultural agents” (KUREHA CORPORATION, priority 2009, dated 2015).

Legend:
[1] = system: Puccinia recondita; assay: Efficacy test against wheat brown rust, 100 mg/L and 10 mg/L (Experimental Example 2); assay type: in vivo; settings: nine to 14 days after inoculation; for efficacy compared with compound (1): 10 mg/L sprayed at 1,000 L/ha; for pest or weed control at 100 µg/mL: Puccinia recondita, 336 h, 100 mg/L sprayed at 1,000 L/ha, read-out: Protective value
Method: Onto a wheat plant (variety: NORIN No. 61) grown to the two-leaf phase using a square plastic pot (6 cm×6 cm), a wettable formulation such as Formulation Example 1 which was diluted and suspended in water at a certain concentration (100 mg/L and 10 mg/L) was sprayed at a rate of 1,000 L/ha. The sprayed leaves were air-dried, and inoculated with spore suspension of Puccinia recondita (adjusted at 200 spores/vision, […] was added at 60 ppm) by spraying, and kept at 25 degrees C. and a high humidity for 48 hours. Thereafter, the plant was kept in a greenhouse. Nine to 14 days after inoculation, the wheat brown rust lesion degree was investigated, and the protective value was calculated by the following equation. Protective value (%)=(1-lesion degree in sprayed plot/lesion degree in unsprayed plot)×100

[2] = system: Penicillium sp.; assay: Plate medium assay, industrial material deteriorating microorganism, Penicillium (Experimental Example 5); assay type: cell-based; settings: treatment at 50 mg/l, PDA plate medium, read-out: growth inhibition grade
Method: (§1) In this Experimental Example, the fungicidal effects of the inventive compounds on various phytopathogenic fungi for plants and hazardous microorganism for industrial materials were examined by the methods described below. Each inventive compound was dissolved in 2 ml of dimethyl sulfoxide. 0.6 ml of this solution was added to 60 nil of a PDA medium (potato dextrose agar medium) at about 60 degrees C., which was mixed thoroughly in a 100-ml conical flask, and poured into a dish, where it was solidified, thereby obtaining a plate medium containing the inventive compound at 50 mg/L and 5 mg/L. On the other hand, a subject microorganism previously cultured on a plate medium was cut out using a cork borer whose diameter was 4 mm, and inoculated to the test compound-containing plate medium described above. […] The growth degree of the microorganism on the test compound-containing plate medium thus observed was compared with the growth degree of the microorganism in the untreated group, and % mycelial growth inhibition was calculated by the following equation. R=100(dc-dt)/dc wherein R=% mycelial extension inhibition, dc=flora diameter in untreated plate, dt=flora diameter in treated plate. The results obtained as described above were evaluated as one of the 5 grades according to the following criteria.

[3] = system: Mucor sp.; assay: Plate medium assay, industrial material deteriorating microorganism, Mucor (Experimental Example 5); assay type: cell-based; settings: treatment at 50 mg/l, PDA plate medium, read-out: growth inhibition grade
Method: as §1

[4] = system: Aspergillus sp.; assay: Plate medium assay, industrial material deteriorating microorganism, Aspergillus (Experimental Example 5); assay type: cell-based; settings: treatment at 50 mg/l, PDA plate medium, read-out: growth inhibition grade
Method: as §1

[5] = system: Botrytis cinerea; assay: Efficacy test against cucumber gray mold (Experimental Example 1); assay type: in vivo; settings: 96 h, four days after inoculation, read-out: Protective value; for pest or weed control at 100 µg/mL: 100 mg/L sprayed at 1,000 L/ha
Method: Onto a cucumber (variety:SHARP1) plant in its cotyledon phase grown using a square plastic pot (6 cm×6 cm), a wettable formulation such as Formulation Example 1 which was diluted and suspended in water at a certain concentrations (100 mg/L and 50 mg/L) was sprayed at a rate of 1,000 L/ha. The sprayed leaves were air-dried, and loaded with a paper disc (8 mm in diameter) soaked in a spore suspension of Botrytis cinerea, and kept at 20 degrees C. and a high humidity. Four days after inoculation, the cucumber gray mold lesion degree was investigated, and the protective value was calculated by the following equation. Protective value (%)=(1−mean lesion degree in sprayed plot/mean lesion degree in unsprayed plot)×100

[6] = system: Curvularia sp.; assay: Plate medium assay, industrial material deteriorating microorganism, Curvularia (Experimental Example 5); assay type: cell-based; settings: treatment at 50 mg/l, PDA plate medium, read-out: growth inhibition grade
Method: as §1

[7] = system: Coriolus versicolor; assay: Plate medium assay, wood denaturing microorganism Kawaratake (Experimental Example 5); assay type: cell-based; settings: Trametes versicolor; treatment at 50 mg/l, PDA plate medium; read-out: growth inhibition grade
Method: as §1

[8] = system: Septoria tritici; assay: Microplate test of biocidal effect on wheat Septoria blotch (Experimental Example 4); assay type: cell-based; settings: Zymoseptoria tritici, 240 h; % mycelium growth inhibition, absorbance 550 nm, 20 degrees C. for about 10 days; read-out: activity level (EC80)
Method: A spore suspension of wheat Septoria blotch (Septoria tritici) (spore concentration: 1×10^6 cells/ml) was prepared, and subjected to 100-fold dilution with a PD medium. A flat 96-well microplate was provided and 1 microliter of the test compound solution formed by dissolution in dimethyl sulfoxide (DMSO) at a concentration 100 times the test concentration was dispensed to the microplate, and then 100 microliter of the medium containing the spore was added and stirred thoroughly. […] R=100×(dc−dt)/dc: R: % mycelium growth inhibition dc: Absorbance of non-treatment zone dt: Absorbance of treatment zone

[9] = system: Aureobasidium sp.; assay: Plate medium assay, industrial material deteriorating microorganism, Aureobasidium (Experimental Example 5); assay type: cell-based; settings: treatment at 50 mg/l, PDA plate medium, read-out: growth inhibition grade
Method: as §1

[10] = system: Cladosporium sp.; assay: Plate medium assay, industrial material deteriorating microorganism, Cladosporium (Experimental Example 5); assay type: cell-based; settings: treatment at 50 mg/l, PDA plate medium, read-out: growth inhibition grade
Method: as §1

[11] = system: Fusarium graminearum; assay: whole plant or invertebrate; assay type: in vivo; settings: in Triticum aestivum, 168 h, read-out: Protective value

SMILES	efficacy compared with compound (1) [1]	pest or weed control at 100 µg/mL [1] [%]	inhibition at 50 µg/mL [2] [%]	inhibition at 50 µg/mL [3] [%]	inhibition at 50 µg/mL [4] [%]	pest or weed control at 50 µg/mL ([5]; 50 mg/L sprayed at 1,000 L/ha) [%]	pest or weed control at 100 µg/mL [5] [%]	inhibition at 50 µg/mL [6] [%]	inhibition at 50 µg/mL [7] [%]	EC80 [8] [µg/mL]	inhibition at 50 µg/mL [9] [%]	inhibition at 50 µg/mL [10] [%]	pest or weed control at 100 µg/mL [11] [%]	pest or weed control at 500 µg/mL [11] [%]
C[C@@]1(CCl)CC[C@@H](Cc2ccc(Cl)cc2)[C@]1(O)Cn1cncn1 (racemic) [Compound I-101]	higher efficacy than that of compound (1)	–	–	–	–	–	–	–	–	–	–	–	–	–
C[C@]1(CBr)CC[C@@H](Cc2ccc(F)cc2)[C@]1(O)Cn1cncn1 (racemic) [Compound I-601, (1RS,2SR,5SR)-2-bromomethyl-5-(4-fluorobenzyl)-2-methyl-1-(1H-1,2,4-triazol-1-ylmethyl)cyclopentanol]	higher efficacy than that of compound (1)	≥ 90	60 to 80	60 to 80	60 to 80	≥ 80	≥ 80	60 to 80	60 to 80	≤ 0.2	60 to 80	60 to 80	≥ 80	≥ 90
C[C@]1(CCl)CC[C@@H](Cc2ccccc2F)[C@]1(O)Cn1cncn1 (relative stereo) [Compound I-86]	higher efficacy than that of compound (1)	–	–	–	–	–	–	–	–	–	–	–	–	–
CC[C@]1(CCl)CC[C@@H](Cc2ccccc2)[C@]1(O)Cn1cncn1 (relative stereo) [Compound I-97]	higher efficacy than that of compound (1)	–	–	–	–	–	–	–	–	–	–	–	–	–
Cc1ccc(C[C@@H]2CC[C@](C)(CCl)[C@@]2(O)Cn2cncn2)cc1 (relative stereo) [Compound I-80]	higher efficacy than that of compound (1)	–	–	–	–	–	–	–	–	–	–	–	–	–
C[C@]1(CBr)CC[C@@H](Cc2ccc(Cl)cc2)[C@]1(O)Cn1cncn1 (racemic) [Compound I-25, (1RS,2SR,5SR)-2-bromomethyl-5-(4-chlorobenzyl)-2-methyl-1-(1H-1,2,4-triazol-1-ylmethyl)cyclopentanol]	higher efficacy than that of compound (1)	≥ 90	60 to 80	60 to 80	60 to 80	–	≥ 80	60 to 80	60 to 80	≤ 0.2	60 to 80	60 to 80	≥ 80	≥ 90
C[C@@]1(CCl)CC[C@H](Cc2ccc(Cl)cc2)[C@]1(O)Cn1cncn1 (racemic) [Compound I-401, (1RS,2RS,5RS)-5-(4-chlorobenzyl)-2-chloromethyl-2-methyl-1-[1,2,4]triazol-1-ylmethylcyclopentanol]	–	–	60 to 80	60 to 80	60 to 80	–	–	60 to 80	60 to 80	–	60 to 80	60 to 80	–	≥ 90
C[C@]1(CCl)CC[C@H](Cc2ccc(Cl)cc2)[C@]1(O)Cn1cncn1 (racemic) [Compound I-301, (1RS,2SR,5RS)-5-(4-chlorobenzyl)-2-chloromethyl-2-methyl-1-[1,2,4]triazol-1-ylmethylcyclopentanol]	–	≥ 90	60 to 80	60 to 80	60 to 80	–	–	60 to 80	60 to 80	≤ 0.2	60 to 80	60 to 80	–	≥ 90
O[C@]1(Cn2cncn2)[C@H](Cc2ccc(Cl)cc2)CCC1(CCl)CCl (relative stereo) [Compound I-203, cis-5-(4-chlorobenzyl)-2,2-bis(chloromethyl)-1-(1H-1,2,4-triazol-1-yl)methylcyclopentanol]	higher efficacy than that of compound (1)	–	–	–	–	–	–	–	–	–	–	–	–	–
O[C@]1(Cn2cncn2)[C@H](Cc2ccc(Cl)cc2)CC[C@@H]1C(F)(F)F (racemic) [Compound I-65, (1RS,2SR,5SR)-5-(4-chlorobenzyl)-2-trifluoromethyl-1-(1H-1,2,4-triazol-1-ylmethyl)cyclopentanol]	–	≥ 90	60 to 80	60 to 80	60 to 80	–	≥ 80	60 to 80	60 to 80	–	60 to 80	60 to 80	–	≥ 90
C[C@]1(CCl)CC[C@@H](Cc2ccc(Cl)cc2)[C@]1(O)Cn1ccnc1 (racemic) [Compound I-244, (1RS,2SR,5SR)-5-(4-chlorobenzyl)-2-chloromethyl-2-methyl-1-imidazol-1-ylmethylcyclopentanol]	–	≥ 90	60 to 80	60 to 80	60 to 80	–	–	60 to 80	60 to 80	≤ 0.2	60 to 80	60 to 80	–	≥ 90
CC(Cl)=C[C@]1(C)CC[C@@H](Cc2ccc(Cl)cc2)[C@]1(O)Cn1cncn1 (racemic) [Compound I-115, (1RS,2SR,5SR)-5-(4-chlorobenzyl)-2-(2-chloropropenyl)-2-methyl-1-(1H-1,2,4-triazol-1-ylmethyl)cyclopentanol]	–	≥ 90	60 to 80	60 to 80	60 to 80	–	–	60 to 80	60 to 80	–	60 to 80	60 to 80	≥ 80	≥ 90
CC[C@]1(CCl)CC[C@@H](Cc2ccc(Cl)cc2)[C@]1(O)Cn1cncn1 (racemic) [Compound I-36, (1RS,2SR,5SR)-5-(4-chlorobenzyl)-2-chloromethyl-2-ethyl-1-(1H-1,2,4-triazol-1-ylmethyl)cyclopentanol]	higher efficacy than that of compound (1)	≥ 90	60 to 80	60 to 80	60 to 80	–	–	60 to 80	60 to 80	≤ 0.2	60 to 80	60 to 80	≥ 80	≥ 90
O[C@]1(Cn2cncn2)[C@@H](Cc2ccc(Cl)cc2)CC[C@@H]1C(F)(F)F (racemic) [Compound I-365, (1RS,2SR,5RS)-5-(4-chlorobenzyl)-2-trifluoromethyl-1-(1H-1,2,4-triazol-1-ylmethyl)cyclopentanol]	–	–	60 to 80	60 to 80	60 to 80	–	–	60 to 80	60 to 80	–	60 to 80	60 to 80	–	≥ 90
C[C@]1(CCl)CC[C@@H](Cc2ccc(OC(F)(F)F)cc2)[C@]1(O)Cn1cncn1 (relative stereo) [Compound I-79]	higher efficacy than that of compound (1)	–	–	–	–	–	–	–	–	–	–	–	–	–
